Results reported in patent EP0044212B1, “Herbicidal o-alkylsulfonyloxy- and o-alkylsulfonylamino-benzenesulfonamides” (E.I. DU PONT DE NEMOURS AND COMPANY, priority 1980, dated 1982).

Legend:
Experiment in all cases: Test A greenhouse herbicide screen
Morningglory = assay type: in vivo, Ipomoea sp.; conditions: 16 days
From the text: (§1) Seeds of crabgrass (Digitaria spp.), barnyardgrass (Echinochloa crusgalli), wild oats (Avena fatua), cassia (Cassia tora), morningglory (Ipomoea sp.), cocklebur (Xanthium spp.), sorghum, corn, soybean, rice, wheat and nutsedge tubers (Cyperus rotundus) were planted in a growth medium and treated preemergence with the chemicals dissolved in a non-phytotoxic solvent solution of the compounds of Table A. At the same time, cotton having five leaves (including cotyledonary ones), bush beans with the third trifoliate leaf expanding, crabgrass and barnyardgrass with two leaves, wild oats with two leaves, cassia with three leaves (including cotyledonary ones), morningglory and cocklebur with four leaves (including the cotyldonary ones), sorghum and corn with four leaves, soybean with two cotyledonary leaves, rice with three leaves, wheat with one leaf, and nutsedge with three-five leaves were sprayed with a non-phytotoxic solvent solution of the compounds of Table A. Other containers of the above mentioned weeds and crops were treated pre- or post-emergence with the same non-phytotoxic solvent so as to provide a solvent control. A set of untreated control plants was also included for comparison. Pre- emergence and post-emergence treated plants and controls were maintained in a greenhouse for sixteen days, then all treated plants were compared with their respective controls and rated visually for response to treatment.

Corn = assay type: in vivo; conditions: 16 days
From the text: as §1

Cotton = assay type: in vivo; conditions: POST-EMERGENCE, 16 days
From the text: as §1

Sorghum = assay type: in vivo; conditions: 16 days
From the text: as §1

Barnyardgrass = assay type: in vivo, Echinochloa crusgalli; conditions: 16 days
From the text: as §1

Crabgrass = assay type: in vivo, Digitaria spp.; design: scale not given here; conditions: 16 days
From the text: as §1

Cassia = assay type: in vivo, Cassia tora; design: scale not given here; conditions: 16 days
From the text: as §1

Bush Bean = assay type: in vivo, bush beans; conditions: POST-EMERGENCE, 16 days
From the text: as §1

Rice = assay type: in vivo; design: scale not given here; conditions: 16 days
From the text: as §1

Wheat = assay type: in vivo; design: scale not given here; conditions: 16 days
From the text: as §1

Soybean = assay type: in vivo; design: scale not given here; conditions: 16 days
From the text: as §1

Nutsedge = assay type: in vivo, Cyperus rotundus; design: scale not given here; conditions: 16 days
From the text: as §1

Cocklebur = assay type: in vivo, Xanthium spp.; conditions: 16 days
From the text: as §1

Wild Oats = assay type: in vivo, Avena fatua; conditions: 16 days
From the text: as §1

COc1nc(NC(=O)NS(=O)(=O)c2cc(Cl)cc(Cl)c2OS(C)(=O)=O)nc(OC)n1 [Compound 44] was tested, and the Morningglory response rating (Morningglory; POST-EMERGENCE, 2 kg/ha) was 0, the Morningglory response rating (Morningglory; PRE-EMERGENCE, 2 kg/ha) was 0 and the Morningglory response rating (Morningglory; PRE-EMERGENCE, 6 kg/ha) was 2C. It also gave a Corn response rating (Corn; POST-EMERGENCE, 2 kg/ha) of 0, a Corn response rating (Corn; POST-EMERGENCE, 6 kg/ha) of 0 and a Corn response rating (Corn; PRE-EMERGENCE, 2 kg/ha) of 0. It also gave a Cotton response rating (Cotton; 2 kg/ha) of 0, a Cotton response rating (Cotton; 6 kg/ha) of 2C and a Sorghum response rating (Sorghum; POST-EMERGENCE, 2 kg/ha) of 0. The Sorghum response rating (Sorghum; POST-EMERGENCE, 6 kg/ha) was 2C, the Sorghum response rating (Sorghum; PRE-EMERGENCE, 2 kg/ha) was 0 and the Sorghum response rating (Sorghum; PRE-EMERGENCE, 6 kg/ha) was 2C. For the same compound, the Barnyardgrass response rating (Barnyardgrass; POST-EMERGENCE, 2 kg/ha) was 0, the Barnyardgrass response rating (Barnyardgrass; POST-EMERGENCE, 6 kg/ha) was 0 and the Barnyardgrass response rating (Barnyardgrass; PRE-EMERGENCE, 2 kg/ha) was 0. For the same compound, the Barnyardgrass response rating (Barnyardgrass; PRE-EMERGENCE, 6 kg/ha) was 5C, the Crabgrass response rating (Crabgrass; POST-EMERGENCE, 2 kg/ha) was 0 and the Crabgrass response rating (Crabgrass; POST-EMERGENCE, 6 kg/ha) was 0. The Crabgrass response rating (Crabgrass; PRE-EMERGENCE, 2 kg/ha) was 0, the Crabgrass response rating (Crabgrass; PRE-EMERGENCE, 6 kg/ha) was 0 and the Cassia response rating (Cassia; POST-EMERGENCE, 2 kg/ha) was 0. It also gave a Cassia response rating (Cassia; POST-EMERGENCE, 6 kg/ha) of 0, a Cassia response rating (Cassia; PRE-EMERGENCE, 2 kg/ha) of 0 and a Cassia response rating (Cassia; PRE-EMERGENCE, 6 kg/ha) of 5G. For the same compound, the “Bush Bean response rating” value (Bush Bean; 2 kg/ha) was 0, the “Bush Bean response rating” value (Bush Bean; 6 kg/ha) was 0 and the Rice response rating (Rice; POST-EMERGENCE, 2 kg/ha) was 0. For the same compound, the Rice response rating (Rice; POST-EMERGENCE, 6 kg/ha) was 0, the Rice response rating (Rice; PRE-EMERGENCE, 2 kg/ha) was 0 and the Rice response rating (Rice; PRE-EMERGENCE, 6 kg/ha) was 1C. It also gave a Wheat response rating (Wheat; POST-EMERGENCE, 2 kg/ha) of 0, a Wheat response rating (Wheat; POST-EMERGENCE, 6 kg/ha) of 0 and a Wheat response rating (Wheat; PRE-EMERGENCE, 2 kg/ha) of 0. For the same compound, the Wheat response rating (Wheat; PRE-EMERGENCE, 6 kg/ha) was 0, the Soybean response rating (Soybean; POST-EMERGENCE, 2 kg/ha) was 0 and the Soybean response rating (Soybean; POST-EMERGENCE, 6 kg/ha) was 3G. For the same compound, the Soybean response rating (Soybean; PRE-EMERGENCE, 2 kg/ha) was 0, the Soybean response rating (Soybean; PRE-EMERGENCE, 6 kg/ha) was 0 and the Nutsedge response rating (Nutsedge; POST-EMERGENCE, 2 kg/ha) was 0. The Nutsedge response rating (Nutsedge; POST-EMERGENCE, 6 kg/ha) was 0, the Nutsedge response rating (Nutsedge; PRE-EMERGENCE, 2 kg/ha) was 0 and the Nutsedge response rating (Nutsedge; PRE-EMERGENCE, 6 kg/ha) was 0. For the same compound, the Cocklebur response rating (Cocklebur; POST-EMERGENCE, 2 kg/ha) was 0, the Cocklebur response rating (Cocklebur; POST-EMERGENCE, 6 kg/ha) was 0 and the Cocklebur response rating (Cocklebur; PRE-EMERGENCE, 2 kg/ha) was 0. For the same compound, the Cocklebur response rating (Cocklebur; PRE-EMERGENCE, 6 kg/ha) was 5H, the “Wild Oats response rating” value (Wild Oats; POST-EMERGENCE, 2 kg/ha) was 0 and the “Wild Oats response rating” value (Wild Oats; POST-EMERGENCE, 6 kg/ha) was 0. The “Wild Oats response rating” value (Wild Oats; PRE-EMERGENCE, 2 kg/ha) was 0 and the “Wild Oats response rating” value (Wild Oats; PRE-EMERGENCE, 6 kg/ha) was 0.

Work on COc1nc(C)nc(NC(=O)NS(=O)(=O)c2cc(Cl)cc(Cl)c2OS(C)(=O)=O)n1 [Compound 43] yielded a Morningglory response rating (Morningglory; POST-EMERGENCE, 2 kg/ha) of 0, a Morningglory response rating (Morningglory; POST-EMERGENCE, 6 kg/ha) of 0 and a Morningglory response rating (Morningglory; PRE-EMERGENCE, 2 kg/ha) of 0. It also gave a Morningglory response rating (Morningglory; PRE-EMERGENCE, 6 kg/ha) of 3C, a Corn response rating (Corn; POST-EMERGENCE, 2 kg/ha) of 0 and a Corn response rating (Corn; POST-EMERGENCE, 6 kg/ha) of 0. It also gave a Corn response rating (Corn; PRE-EMERGENCE, 2 kg/ha) of 0, a Cotton response rating (Cotton; 2 kg/ha) of 0 and a Cotton response rating (Cotton; 6 kg/ha) of 3C. For the same compound, the Sorghum response rating (Sorghum; POST-EMERGENCE, 2 kg/ha) was 0, the Sorghum response rating (Sorghum; POST-EMERGENCE, 6 kg/ha) was 0 and the Sorghum response rating (Sorghum; PRE-EMERGENCE, 2 kg/ha) was 0. For the same compound, the Barnyardgrass response rating (Barnyardgrass; POST-EMERGENCE, 2 kg/ha) was 0, the Barnyardgrass response rating (Barnyardgrass; POST-EMERGENCE, 6 kg/ha) was 1C and the Barnyardgrass response rating (Barnyardgrass; PRE-EMERGENCE, 2 kg/ha) was 0. It also gave a Crabgrass response rating (Crabgrass; POST-EMERGENCE, 2 kg/ha) of 0, a Crabgrass response rating (Crabgrass; POST-EMERGENCE, 6 kg/ha) of 0 and a Crabgrass response rating (Crabgrass; PRE-EMERGENCE, 2 kg/ha) of 0. The Crabgrass response rating (Crabgrass; PRE-EMERGENCE, 6 kg/ha) was 2G, the Cassia response rating (Cassia; POST-EMERGENCE, 2 kg/ha) was 0 and the Cassia response rating (Cassia; POST-EMERGENCE, 6 kg/ha) was 1C. For the same compound, the Cassia response rating (Cassia; PRE-EMERGENCE, 2 kg/ha) was 0, the Cassia response rating (Cassia; PRE-EMERGENCE, 6 kg/ha) was 3G and the “Bush Bean response rating” value (Bush Bean; 2 kg/ha) was 0. For the same compound, the “Bush Bean response rating” value (Bush Bean; 6 kg/ha) was 3C, the Rice response rating (Rice; POST-EMERGENCE, 2 kg/ha) was 0 and the Rice response rating (Rice; POST-EMERGENCE, 6 kg/ha) was 0. For the same compound, the Rice response rating (Rice; PRE-EMERGENCE, 2 kg/ha) was 0, the Rice response rating (Rice; PRE-EMERGENCE, 6 kg/ha) was 1C and the Wheat response rating (Wheat; POST-EMERGENCE, 2 kg/ha) was 0. The Wheat response rating (Wheat; POST-EMERGENCE, 6 kg/ha) was 0, the Wheat response rating (Wheat; PRE-EMERGENCE, 2 kg/ha) was 0 and the Wheat response rating (Wheat; PRE-EMERGENCE, 6 kg/ha) was 0. It also gave a Soybean response rating (Soybean; POST-EMERGENCE, 2 kg/ha) of 0, a Soybean response rating (Soybean; POST-EMERGENCE, 6 kg/ha) of 1C and a Soybean response rating (Soybean; PRE-EMERGENCE, 2 kg/ha) of 0. The Soybean response rating (Soybean; PRE-EMERGENCE, 6 kg/ha) was 0, the Nutsedge response rating (Nutsedge; POST-EMERGENCE, 2 kg/ha) was 0 and the Nutsedge response rating (Nutsedge; POST-EMERGENCE, 6 kg/ha) was 0. For the same compound, the Nutsedge response rating (Nutsedge; PRE-EMERGENCE, 2 kg/ha) was 0, the Nutsedge response rating (Nutsedge; PRE-EMERGENCE, 6 kg/ha) was 0 and the Cocklebur response rating (Cocklebur; POST-EMERGENCE, 2 kg/ha) was 0. For the same compound, the Cocklebur response rating (Cocklebur; POST-EMERGENCE, 6 kg/ha) was 0, the Cocklebur response rating (Cocklebur; PRE-EMERGENCE, 2 kg/ha) was 0 and the “Wild Oats response rating” value (Wild Oats; POST-EMERGENCE, 2 kg/ha) was 0. For the same compound, the “Wild Oats response rating” value (Wild Oats; POST-EMERGENCE, 6 kg/ha) was 0 and the “Wild Oats response rating” value (Wild Oats; PRE-EMERGENCE, 2 kg/ha) was 0.
